Some test systems named below: HOP-62; Malme-3M; M19-MEL; HCT-15; SNB-75; OVCAR-5; UACC-257; SW-620; DMS-273; M14; IGROV-1; LXFL 529; UO-31; NCI-H522; HCT-116; HT-29; A498; CAKI-1; NCI-H460.
Assay in all cases: NCI anticancer screen, dose series, 48 h

The structures appear in SMILES notation.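 96-well plates; 48 h exposure; 5 concentrations. Endpoints by linear interpolation between flanking doses. Not reached: highest tested concentration assigned. Here, GI50 denotes the concentration required for 50% inhibition of growth.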 The source made the active and inactive calls. No stated cut-off is given here; in the data, active = GI50 up to about 1.1 µM and inactive = higher. A value given as a limit tells only on which side of the number the result lay.

With `COC(OC)c1cccc2c1C(=O)CCC1(O)c3ccccc3C1C2` (stereo unspecified), the GI50 was > 100 µM (inactive) in the experiment with HOP-62; > 100 µM (inactive) in the experiment on Malme-3M; > 100 µM (inactive) in the experiment on M19-MEL; greater than 100 µM with HCT-15; > 100 µM (inactive) in the experiment on SNB-75; > 100 µM (inactive) in the experiment with OVCAR-5. The GI50 in the experiment with UACC-257 was 84.1 µM (inactive); in the experiment with SW-620, > 100 µM (inactive); in the experiment with DMS-273, > 100 µM (inactive); in the experiment with M14, > 100 µM (inactive); with IGROV-1, > 100 µM (inactive); with LXFL 529 it was 86.3 µM (inactive). The GI50 is > 100 µM (inactive) in the experiment on UO-31, > 100 µM (inactive) with NCI-H522, 33.7 µM (inactive) in the experiment on HCT-116 and > 100 µM (inactive) in the experiment on HT-29.
Consider `COc1ccc2c(=O)c(C)c(-c3ccccc3)oc2c1CN(C)C` [DIMEFLINE], for which the GI50 is > 100 µM (inactive) in the experiment on A498; > 100 µM (inactive) in the experiment with HOP-62; > 100 µM (inactive) in the experiment on Malme-3M; > 100 µM (inactive) with CAKI-1; 65.5 µM (inactive) in the experiment on OVCAR-5; > 100 µM (inactive) in the experiment on DMS-273. Also, the GI50 in the experiment with M14, with IGROV-1, with LXFL 529, with UO-31, in the experiment with NCI-H522 and in the experiment on NCI-H460 was > 100 µM (inactive) throughout. In the experiment with HCT-116, the GI50 is > 100 µM (inactive).
For the molecule `[N-]=[N+]=NC(c1cn(C2CC(O)C(CO)O2)c(=O)[nH]c1=O)C(Br)I` (stereo unspecified), the GI50 in the experiment with HOP-62 is > 100 µM (inactive); with Malme-3M it was > 100 µM (inactive); with M19-MEL it was > 100 µM (inactive); in the experiment with HCT-15 it was greater than 100 µM; with SNB-75, > 100 µM (inactive); with CAKI-1 it was > 100 µM (inactive). The GI50 with OVCAR-5, in the experiment on SW-620, with DMS-273, in the experiment with M14, in the experiment with IGROV-1 and in the experiment with LXFL 529 was > 100 µM (inactive) in each case. Further, the GI50 in the experiment on UO-31, in the experiment with NCI-H522, in the experiment on NCI-H460, in the experiment on HCT-116 and in the experiment on HT-29 was > 100 µM (inactive) in each case.
For the molecule `O=C(/C(=N/Nc1ccccc1)c1ccc([N+](=O)[O-])cc1)c1ccc([N+](=O)[O-])cc1`, the GI50 in the experiment on Malme-3M is > 100 µM (inactive); with M19-MEL it was > 100 µM (inactive); in the experiment with HCT-15 it was 39 µM; in the experiment with SNB-75, 85.5 µM (inactive); with CAKI-1, > 100 µM (inactive); with OVCAR-5, > 100 µM (inactive). For the same molecule, the GI50 in the experiment on UACC-257, in the experiment with SW-620, with DMS-273, with M14, with IGROV-1 and with LXFL 529 was > 100 µM (inactive) throughout. In addition, the GI50 is > 100 µM (inactive) in the experiment on UO-31; 21.9 µM (inactive) in the experiment on NCI-H522; > 100 µM (inactive) in the experiment on NCI-H460; > 100 µM (inactive) with HCT-116; 20.7 µM (inactive) in the experiment on HT-29.
Turning to `O=C(c1ccccc1)c1c(CC(O)c2ccccn2)n(C(=O)c2ccccc2)c2ccccc12` (stereo unspecified), the GI50 with HOP-62 was 17.9 µM (inactive); in the experiment on Malme-3M, 18.6 µM (inactive); in the experiment on M19-MEL it was 20.8 µM (inactive); with HCT-15, 23.4 µM; in the experiment on SNB-75, 8.04 µM (inactive); in the experiment on CAKI-1, 36.6 µM (inactive). The GI50 is 20.7 µM (inactive) in the experiment with OVCAR-5; 17.7 µM (inactive) in the experiment on UACC-257; 31.4 µM (inactive) in the experiment with SW-620; 23.6 µM (inactive) with DMS-273; 18.9 µM (inactive) in the experiment with M14; 23.7 µM (inactive) with IGROV-1. Besides, the GI50 is 28.5 µM (inactive) in the experiment with LXFL 529; 22.1 µM (inactive) with UO-31; 20.3 µM (inactive) in the experiment on NCI-H522; 21.5 µM (inactive) with NCI-H460; 14 µM (inactive) with HCT-116; 15 µM (inactive) in the experiment on HT-29.
Turning to `COc1ccc2c(C3(O)CCNCC3)c[nH]c2c1`, the GI50 was > 100 µM (inactive) with HOP-62; > 100 µM (inactive) in the experiment on Malme-3M; > 100 µM (inactive) in the experiment on M19-MEL; greater than 100 µM in the experiment on HCT-15; > 100 µM (inactive) in the experiment on SNB-75; > 100 µM (inactive) in the experiment with CAKI-1. Further, the GI50 in the experiment with OVCAR-5, in the experiment on SW-620, in the experiment with DMS-273, in the experiment with M14, in the experiment on IGROV-1 and with LXFL 529 was > 100 µM (inactive) each time. Moreover, the GI50 in the experiment with UO-31, in the experiment with NCI-H522, in the experiment with NCI-H460 and in the experiment on HT-29 was > 100 µM (inactive) throughout.
Consider `CC1CN(C(=O)CN2CCC(CCCCN(C)C)CC2)c2ccccc2NC1=O` (stereo unspecified), for which the GI50 in the experiment with A498 is > 100 µM (inactive); in the experiment on HOP-62 it was > 100 µM (inactive); in the experiment on Malme-3M, > 100 µM (inactive); in the experiment on M19-MEL, > 100 µM (inactive); in the experiment with HCT-15 it was greater than 100 µM; in the experiment on CAKI-1, 90.6 µM (inactive). The GI50 with OVCAR-5, in the experiment with UACC-257, in the experiment with SW-620, with DMS-273, with M14 and in the experiment with IGROV-1 was > 100 µM (inactive) in each case. For the same molecule, the GI50 with LXFL 529, in the experiment on UO-31, with NCI-H460, with HCT-116 and with HT-29 was > 100 µM (inactive) each time.
With `CCCCCCCCCCCc1noc2c1C(=O)C(O)CC2` (stereo unspecified), the GI50 is 34.9 µM (inactive) with A498; 45.8 µM (inactive) with HOP-62; 20.7 µM in the experiment on HCT-15; 24.1 µM (inactive) in the experiment on SNB-75; 32.8 µM (inactive) in the experiment with CAKI-1; 18.2 µM (inactive) with OVCAR-5. The GI50 was 20.5 µM (inactive) in the experiment on UACC-257; 18 µM (inactive) in the experiment with SW-620; 16.8 µM (inactive) in the experiment with DMS-273; 27.2 µM (inactive) with M14; 50 µM (inactive) in the experiment with IGROV-1; 16.6 µM (inactive) in the experiment on LXFL 529. Besides, the GI50 with UO-31 was 23.3 µM (inactive); in the experiment on NCI-H522 it was 20.5 µM (inactive); with NCI-H460, 20 µM (inactive); in the experiment on HCT-116, 17.6 µM (inactive); with HT-29, 18.8 µM (inactive).
Turning to `CC1(C)CCc2cc3c(cc2O1)OCCC3=O`, the GI50 with A498 was > 100 µM (inactive); in the experiment on HOP-62, > 100 µM (inactive); in the experiment with Malme-3M, > 100 µM (inactive); in the experiment with M19-MEL it was > 100 µM (inactive); in the experiment on HCT-15, greater than 100 µM; in the experiment with SNB-75 it was > 100 µM (inactive). Also, the GI50 with CAKI-1 is 92.7 µM (inactive); in the experiment on OVCAR-5 it was > 100 µM (inactive); in the experiment on UACC-257, > 100 µM (inactive); in the experiment on SW-620, > 100 µM (inactive); in the experiment with M14 it was > 100 µM (inactive); in the experiment on IGROV-1, > 100 µM (inactive). For the same molecule, the GI50 was > 100 µM (inactive) with LXFL 529; 94.2 µM (inactive) with UO-31; > 100 µM (inactive) in the experiment with NCI-H522; > 100 µM (inactive) in the experiment with NCI-H460; > 100 µM (inactive) in the experiment on HCT-116; > 100 µM (inactive) in the experiment with HT-29.
In the case of `COc1ccc(C2=Nc3ccccc3SC(C)C2)cc1OC` (stereo unspecified), the GI50 is 23.8 µM (inactive) in the experiment with A498; 21.4 µM (inactive) in the experiment on Malme-3M; 17.8 µM in the experiment on HCT-15; 14.3 µM (inactive) in the experiment with SNB-75; 19.6 µM (inactive) in the experiment on CAKI-1; 24.7 µM (inactive) in the experiment on OVCAR-5. The GI50 in the experiment with UACC-257 is 23.5 µM (inactive); with SW-620 it was 5.66 µM (inactive); in the experiment on DMS-273 it was 16.7 µM (inactive); with M14, 18.6 µM (inactive); in the experiment on IGROV-1, 14.6 µM (inactive); in the experiment on LXFL 529 it was 17.4 µM (inactive). In addition, the GI50 in the experiment on UO-31 is 17.8 µM (inactive); in the experiment with NCI-H522, 17.4 µM (inactive); in the experiment on NCI-H460 it was 19.2 µM (inactive); with HCT-116, 17.7 µM (inactive); in the experiment on HT-29, 19.7 µM (inactive).
Regarding `CC(C)C.C[N+](C)(C)C.OC(c1ccccc1)(C(F)(F)F)C(F)(F)F.OC(c1ccccc1)(C(F)(F)F)C(F)(F)F.[SiH3-]`, the GI50 is 11.1 µM (inactive) in the experiment on Malme-3M; 12.2 µM (inactive) in the experiment on M19-MEL; 2.13 µM with HCT-15; 0.536 µM (active) in the experiment on SNB-75; 11.3 µM (inactive) with CAKI-1; 2.28 µM (inactive) in the experiment with OVCAR-5. Also, the GI50 in the experiment on UACC-257 was 14.1 µM (inactive); with SW-620, 5 µM (inactive); in the experiment on DMS-273, 10.2 µM (inactive); in the experiment on M14 it was 1.05 µM (active); in the experiment with LXFL 529 it was 4.19 µM (inactive); in the experiment on UO-31, 5.79 µM (inactive). Besides, the GI50 was 6.01 µM (inactive) in the experiment on NCI-H522, 2.04 µM (inactive) in the experiment with NCI-H460, 3.46 µM (inactive) in the experiment on HCT-116 and 3.64 µM (inactive) in the experiment on HT-29.
`COC(=O)N(C(=O)OC)C(C(=O)O)C(C)C` (stereo unspecified): the GI50 in the experiment with HOP-62, in the experiment on M19-MEL, in the experiment on SNB-75, with CAKI-1, in the experiment with OVCAR-5 and in the experiment with UACC-257 was > 100 µM (inactive) each time. Moreover, the GI50 in the experiment with SW-620, with DMS-273, in the experiment on M14, with LXFL 529, with UO-31 and in the experiment on NCI-H522 was > 100 µM (inactive) in each case. For the same molecule, the GI50 with NCI-H460 and in the experiment on HT-29 was > 100 µM (inactive) throughout.

Source of the values: ChEMBL document CHEMBL1201862, “PubChem BioAssay data set” (2004).
